Data on 1 molecule can be found in ChEMBL document CHEMBL3124843, “Synthesis, cytostatic, antimicrobial, and anti-HCV activity of 6-substituted 7-(het)aryl-7-deazapurine ribonucleosides” (J Med Chem, 2014).

For this assay, the system named is Mycobacterium tuberculosis. Briefly: Antimycobacterial activity against Mycobacterium bovis BCG after 5 days by MTT assay. The format is functional, organism-based. The note with it: variant bovis BCG, 120 h. Background: Formazan colour is commonly taken as a measure of viable cells.

In general, IC50 refers to the concentration needed to halve the response being measured. The molecule `COc1ncnc2c1c(-c1ccco1)cn2[C@@H]1O[C@H](CO)[C@@H](O)[C@H]1O` yielded an IC50 of more than 100 µM.
